Drawing on PubChem BioAssay AID328 (DTP/NCI, 2004), this text covers T/C for 17 compounds.

Values joined by “and” are separate entries in the source; they are usually repeats but may differ in a detail not shown here. Identical values can stand only once. Inconclusive results and toxic doses are left out.

This experiment relates to BDF1 mice, P388 leukemia ip, median survival T/C. Nature of the experiment: NCI In Vivo Anticancer Drug Screen. Data for tumor model P388 Leukemia (intraperitoneal) in B6D2F1 (BDF1) mice. Particulars: endpoint: median survival time, higher = longer survival. The method, boiled down:
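Each value expresses how treatment altered survival: treated-mouse outcome over vehicle-mouse outcome, both groups bearing the transplanted tumour.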

Where [1] appears, read: dose: 25.0 mg/kg/injection, schedule: Q01DX009 (ip), vehicle: Klucel (hydroxypropylcellulose) (HPC).
The mark [2] stands for this setting: dose: 50.0 mg/kg/injection, schedule: Q01DX009 (ip), vehicle: Klucel (hydroxypropylcellulose) (HPC).
The mark [3] stands for this setting: dose: 100.0 mg/kg/injection, schedule: Q01DX009 (ip), vehicle: Klucel (hydroxypropylcellulose) (HPC).
[4] abbreviates: dose: 200.0 mg/kg/injection, schedule: Q01DX009 (ip), vehicle: Klucel (hydroxypropylcellulose) (HPC).
Where [5] appears, read: dose: 400.0 mg/kg/injection, schedule: Q01DX009 (ip), vehicle: Klucel (hydroxypropylcellulose) (HPC).
[6] abbreviates: dose: 100.0 mg/kg/injection, schedule: Q04DX003 (ip), vehicle: saline with Tween-80.
The mark [7] stands for this setting: dose: 50.0 mg/kg/injection, schedule: Q01DX009 (ip), vehicle: saline with Tween-80.
Where [8] appears, read: dose: 100.0 mg/kg/injection, schedule: Q01DX009 (ip), vehicle: saline with Tween-80.

With `CCN1CC1` (tested in a mixture with another compound), the T/C reads like this: (dose: 0.14 mg/kg/injection, schedule: Q01DX009 (ip), vehicle: saline) 95 % of control; (dose: 0.29 mg/kg/injection, schedule: Q01DX009 (ip), vehicle: saline) 86 % of control; (dose: 0.58 mg/kg/injection, schedule: Q01DX009 (ip), vehicle: saline) 90 % of control; (dose: 1.17 mg/kg/injection, schedule: Q01DX009 (ip), vehicle: saline) 120 % of control; (dose: 2.34 mg/kg/injection, schedule: Q01DX009 (ip), vehicle: saline) 120 % of control.

As to `O=C(Nc1ccccc1F)Nc1ccccc1Cl`, the T/C by setting is: under setting [1], 110 % of control and 112 % of control; under setting [2], 86 % of control and 105 % of control; under setting [3], 101 % of control and 110 % of control; under setting [4], 97 % of control and 120 % of control; under setting [5], 106 % of control and 107 % of control and 117 % of control.

On to `COc1ccccc1OC(=O)Nc1ccc(C)c([N+](=O)[O-])c1`, for which the T/C is 100 % of control (dose: 25.0 mg/kg/injection, schedule: Q04DX003 (ip), vehicle: saline with Tween-80); 104 % of control (dose: 50.0 mg/kg/injection, schedule: Q04DX003 (ip), vehicle: saline with Tween-80); 100 % of control under setting [6].

For the compound `CC(=O)N1N=C(N)SC1c1ccc(Cl)c(Cl)c1` (centres undefined), the T/C is 113 % of control under setting [7] and 113 % of control under setting [8].

For `Oc1ccccc1C=NC1CCCCC1.Oc1ccccc1C=NC1CCCCC1.[Cu+2]`, the T/C (dose: 100.0 mg/kg/injection, schedule: Q01DX001 (ip), vehicle: saline sonified) was 90 % of control; the T/C (dose: 200.0 mg/kg/injection, schedule: Q01DX001 (ip), vehicle: saline sonified) is 90 % of control; the T/C (dose: 400.0 mg/kg/injection, schedule: Q01DX001 (ip), vehicle: saline sonified) was 109 % of control.

Take `COc1ccc(C(OC)C2CCCCC2N2CCCCC2)cc1` (centres undefined): the T/C is, setting by setting: (dose: 0.5 mg/kg/injection, schedule: Q01DX009 (ip), vehicle: Klucel (hydroxypropylcellulose) (HPC)) 90 % of control; (dose: 1.0 mg/kg/injection, schedule: Q01DX009 (ip), vehicle: Klucel (hydroxypropylcellulose) (HPC)) 101 % of control; (dose: 2.0 mg/kg/injection, schedule: Q01DX009 (ip), vehicle: Klucel (hydroxypropylcellulose) (HPC)) 98 % of control.

`COc1cccc2c1C(=O)c1c(O)c3c(c(O)c1C2=O)C[C@@](O)(/C(C)=N\NC(=O)CO)C[C@@H]3OC1CC(N)C(O)C(C)O1` (some centres undefined): the T/C is 172 % of control (dose: 0.27 mg/kg/injection, schedule: Q01DX009 (ip), vehicle: saline); 183 % of control (dose: 0.4 mg/kg/injection, schedule: Q01DX009 (ip), vehicle: saline); 190 % of control (dose: 0.6 mg/kg/injection, schedule: Q01DX009 (ip), vehicle: saline); 186 % of control (dose: 0.9 mg/kg/injection, schedule: Q01DX009 (ip), vehicle: saline); 248 % of control (dose: 1.87 mg/kg/injection, schedule: Q01DX009 (ip), vehicle: saline); 159 % of control and 172 % of control (dose: 2.2 mg/kg/injection, schedule: Q04DX003 (ip), vehicle: saline). Besides, the T/C was 154 % of control and 213 % of control (dose: 3.3 mg/kg/injection, schedule: Q04DX003 (ip), vehicle: saline); 182 % of control (dose: 3.75 mg/kg/injection, schedule: Q01DX009 (ip), vehicle: saline); 163 % of control and 209 % of control (dose: 5.0 mg/kg/injection, schedule: Q04DX003 (ip), vehicle: saline); 115 % of control (dose: 7.5 mg/kg/injection, schedule: Q01DX009 (ip), vehicle: saline); 150 % of control and 200 % of control (dose: 7.5 mg/kg/injection, schedule: Q04DX003 (ip), vehicle: saline); 110 % of control (dose: 29.0 micrograms/kg/injection, schedule: Q01DX009 (ip), vehicle: saline). The T/C (dose: 44.0 micrograms/kg/injection, schedule: Q01DX009 (ip), vehicle: saline) was 116 % of control.

As to `CCOC(=O)C(Cc1ccccc1Cl)(Cc1ccccc1Cl)c1ccccc1`, the T/C under setting [8] was 106 % of control and the T/C (dose: 200.0 mg/kg/injection, schedule: Q01DX009 (ip), vehicle: saline with Tween-80) is 100 % of control.

On to `CNC(=O)c1n[nH]c(C)c1[N+](=O)[O-]`, for which the T/C (dose: 25.0 mg/kg/injection, schedule: Q04DX003 (ip), vehicle: water) is 101 % of control; the T/C (dose: 50.0 mg/kg/injection, schedule: Q04DX003 (ip), vehicle: water) was 106 % of control; the T/C (dose: 100.0 mg/kg/injection, schedule: Q04DX003 (ip), vehicle: water) is 114 % of control; the T/C (dose: 200.0 mg/kg/injection, schedule: Q04DX003 (ip), vehicle: water) was 97 % of control; the T/C (dose: 400.0 mg/kg/injection, schedule: Q04DX003 (ip), vehicle: water) is 87 % of control.

Consider `CCN(CC)CCNc1ccc(N=Nc2ccc(SC)cc2)c2ccccc12`, for which the T/C was 105 % of control under setting [1]; 100 % of control under setting [2]; 100 % of control (dose: 50.0 mg/kg/injection, schedule: Q04DX003 (ip), vehicle: Klucel (hydroxypropylcellulose) (HPC)); 105 % of control under setting [3]; 104 % of control (dose: 100.0 mg/kg/injection, schedule: Q04DX003 (ip), vehicle: Klucel (hydroxypropylcellulose) (HPC)); 90 % of control (dose: 200.0 mg/kg/injection, schedule: Q04DX003 (ip), vehicle: Klucel (hydroxypropylcellulose) (HPC)).

As for `CSc1cccc(NC(C)=O)c1`, the T/C under setting [3] was 95 % of control; the T/C under setting [6] is 104 % of control; the T/C (dose: 200.0 mg/kg/injection, schedule: Q04DX003 (ip), vehicle: saline with Tween-80) is 100 % of control; the T/C under setting [5] was 95 % of control; the T/C (dose: 400.0 mg/kg/injection, schedule: Q04DX003 (ip), vehicle: saline with Tween-80) was 109 % of control.

`O=C(COC1CCCCC1)OC1CCCCC1`: the T/C (dose: 25.0 mg/kg/injection, schedule: Q01DX009 (ip), vehicle: saline with Tween-80) was 100 % of control; the T/C under setting [7] is 113 % of control; the T/C under setting [8] was 118 % of control.

Regarding `CCCSc1nc(N)nc2nc[nH]c12`, the T/C (dose: 100.0 mg/kg/injection, schedule: Q04DX003 (ip), vehicle: alcohol) was 100 % of control; the T/C (dose: 200.0 mg/kg/injection, schedule: Q04DX003 (ip), vehicle: alcohol) is 104 % of control; the T/C (dose: 400.0 mg/kg/injection, schedule: Q04DX003 (ip), vehicle: alcohol) is 90 % of control.

With `CC(Cl)CNC(=O)Nc1cccc2c1CCCC2` (centres undefined), the T/C is, setting by setting: (dose: 100.0 mg/kg/injection, schedule: Q01DX001 (ip), vehicle: saline with Tween-80) 100 % of control; (dose: 200.0 mg/kg/injection, schedule: Q01DX001 (ip), vehicle: saline with Tween-80) 109 % of control; (dose: 400.0 mg/kg/injection, schedule: Q01DX001 (ip), vehicle: saline with Tween-80) 90 % of control.

Take `O=[N+]([O-])c1ccccc1N/N=C\c1c(Cl)n(-c2ccccc2)c2ccccc12`: the T/C was 90 % of control (dose: 100.0 mg/kg/injection, schedule: Q04DX002 (ip), vehicle: Klucel (hydroxypropylcellulose) (HPC)); 99 % of control (dose: 200.0 mg/kg/injection, schedule: Q04DX002 (ip), vehicle: Klucel (hydroxypropylcellulose) (HPC)); 115 % of control (dose: 400.0 mg/kg/injection, schedule: Q04DX002 (ip), vehicle: Klucel (hydroxypropylcellulose) (HPC)).

Take `CCOC(=O)C1(C(=O)O)CC2C(C)C=CC(C)C2C1` (centres undefined): the T/C reads like this: under setting [3], 95 % of control; under setting [4], 110 % of control; under setting [5], 100 % of control.

As to `CCO/C=C1\SC(=S)N(c2ccccc2C)C1=O`, the T/C reads like this: (dose: 8.8 mg/kg/injection, schedule: Q04DX003 (ip), vehicle: saline with Tween-80) 100 % of control; (dose: 13.2 mg/kg/injection, schedule: Q04DX003 (ip), vehicle: saline with Tween-80) 104 % of control; (dose: 20.0 mg/kg/injection, schedule: Q04DX003 (ip), vehicle: saline with Tween-80) 100 % of control; under setting [1], 101 % of control; (dose: 30.0 mg/kg/injection, schedule: Q04DX003 (ip), vehicle: saline with Tween-80) 104 % of control; (dose: 88.0 mg/kg/injection, schedule: Q04DX003 (ip), vehicle: saline with Tween-80) 122 % of control. Moreover, the T/C (dose: 300.0 mg/kg/injection, schedule: Q04DX003 (ip), vehicle: saline with Tween-80) was 163 % of control.
